Test results published in patent US8192962B2, “Processes for detecting toxic substances” (Daikin Industries, Ltd., priority 2001, dated 2012).

System: Genes belonging to other category
Experiment: DNA chip mRNA expression in yeast, genes belonging to other category (Table 9)
Format: cell-based, Saccharomyces cerevisiae S288C
Procedure, shortened: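 Chemical exposure: 2 h, log-phase S. cerevisiae S288C, YPD, 25° C., dose set to inhibit growth without death. Profiling: mRNA labeled by reverse transcription with Cy3- or Cy5-dUTP, hybridized to whole-genome array. Output: fluorescence ratio against untreated culture.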

Structure (SMILES): C=CC=O [(14), acrolein]
- The level of expressed mRNA in the presence of chemical substance/The level of expressed mRNA in the absence of chemical substance (yeast gene YDR432W): 0.5
- The level of expressed mRNA in the presence of chemical substance/The level of expressed mRNA in the absence of chemical substance (yeast gene YDR481C): 0.9
- The level of expressed mRNA in the presence of chemical substance/The level of expressed mRNA in the absence of chemical substance (yeast gene YDR510W): 1.9
- The level of expressed mRNA in the presence of chemical substance/The level of expressed mRNA in the absence of chemical substance (yeast gene YEL042W): 0.6
- The level of expressed mRNA in the presence of chemical substance/The level of expressed mRNA in the absence of chemical substance (yeast gene YEL066W): 1.9
- The level of expressed mRNA in the presence of chemical substance/The level of expressed mRNA in the absence of chemical substance (yeast gene YER009W): 1.6
- The level of expressed mRNA in the presence of chemical substance/The level of expressed mRNA in the absence of chemical substance (yeast gene YER021W): 1.3
- The level of expressed mRNA in the presence of chemical substance/The level of expressed mRNA in the absence of chemical substance (yeast gene YER025W): 2.1
- The level of expressed mRNA in the presence of chemical substance/The level of expressed mRNA in the absence of chemical substance (yeast gene YER039C): 1.2
- The level of expressed mRNA in the presence of chemical substance/The level of expressed mRNA in the absence of chemical substance (yeast gene YER072W): 1.5
- The level of expressed mRNA in the presence of chemical substance/The level of expressed mRNA in the absence of chemical substance (yeast gene YER107C): 1.1
- The level of expressed mRNA in the presence of chemical substance/The level of expressed mRNA in the absence of chemical substance (yeast gene YER130C): 0.8
- The level of expressed mRNA in the presence of chemical substance/The level of expressed mRNA in the absence of chemical substance (yeast gene YER177W): 0.9
- The level of expressed mRNA in the presence of chemical substance/The level of expressed mRNA in the absence of chemical substance (yeast gene YFL022C): 3.1
- The level of expressed mRNA in the presence of chemical substance/The level of expressed mRNA in the absence of chemical substance (yeast gene YFL028C): 1.6
- The level of expressed mRNA in the presence of chemical substance/The level of expressed mRNA in the absence of chemical substance (yeast gene YFL043C): 1.5
- The level of expressed mRNA in the presence of chemical substance/The level of expressed mRNA in the absence of chemical substance (yeast gene YFR014C): 1.0
- The level of expressed mRNA in the presence of chemical substance/The level of expressed mRNA in the absence of chemical substance (yeast gene YFR050C): 1.6
- The level of expressed mRNA in the presence of chemical substance/The level of expressed mRNA in the absence of chemical substance (yeast gene YGL094C): 0.9
- The level of expressed mRNA in the presence of chemical substance/The level of expressed mRNA in the absence of chemical substance (yeast gene YGL150C): 1.0
- The level of expressed mRNA in the presence of chemical substance/The level of expressed mRNA in the absence of chemical substance (yeast gene YGL158W): 2.3
- The level of expressed mRNA in the presence of chemical substance/The level of expressed mRNA in the absence of chemical substance (yeast gene YGL185C): 1.5
- The level of expressed mRNA in the presence of chemical substance/The level of expressed mRNA in the absence of chemical substance (yeast gene YGL229C): 1.0
- The level of expressed mRNA in the presence of chemical substance/The level of expressed mRNA in the absence of chemical substance (yeast gene YGR036C): 1.0
- The level of expressed mRNA in the presence of chemical substance/The level of expressed mRNA in the absence of chemical substance (yeast gene YGR120C): 1.0
- The level of expressed mRNA in the presence of chemical substance/The level of expressed mRNA in the absence of chemical substance (yeast gene YGR131W): 2.0
- The level of expressed mRNA in the presence of chemical substance/The level of expressed mRNA in the absence of chemical substance (yeast gene YGR136W): 1.1
- The level of expressed mRNA in the presence of chemical substance/The level of expressed mRNA in the absence of chemical substance (yeast gene YGR189C): 0.9
- The level of expressed mRNA in the presence of chemical substance/The level of expressed mRNA in the absence of chemical substance (yeast gene YGR213C): 1.0
- The level of expressed mRNA in the presence of chemical substance/The level of expressed mRNA in the absence of chemical substance (yeast gene YGR232W): 2.1
- The level of expressed mRNA in the presence of chemical substance/The level of expressed mRNA in the absence of chemical substance (yeast gene YGR239C): 1.4
- The level of expressed mRNA in the presence of chemical substance/The level of expressed mRNA in the absence of chemical substance (yeast gene YGR257C): 0.9
- The level of expressed mRNA in the presence of chemical substance/The level of expressed mRNA in the absence of chemical substance (yeast gene YHR004C): 0.8
- The level of expressed mRNA in the presence of chemical substance/The level of expressed mRNA in the absence of chemical substance (yeast gene YHR071W): 1.6
- The level of expressed mRNA in the presence of chemical substance/The level of expressed mRNA in the absence of chemical substance (yeast gene YHR109W): 1.5
- The level of expressed mRNA in the presence of chemical substance/The level of expressed mRNA in the absence of chemical substance (yeast gene YHR139C): 2.5
- The level of expressed mRNA in the presence of chemical substance/The level of expressed mRNA in the absence of chemical substance (yeast gene YHR142W): 1.2
- The level of expressed mRNA in the presence of chemical substance/The level of expressed mRNA in the absence of chemical substance (yeast gene YHR161C): 1.0
- The level of expressed mRNA in the presence of chemical substance/The level of expressed mRNA in the absence of chemical substance (yeast gene YHR163W): 1.5
- The level of expressed mRNA in the presence of chemical substance/The level of expressed mRNA in the absence of chemical substance (yeast gene YHR169W): 1.1
- The level of expressed mRNA in the presence of chemical substance/The level of expressed mRNA in the absence of chemical substance (yeast gene YHR171W): 1.0
- The level of expressed mRNA in the presence of chemical substance/The level of expressed mRNA in the absence of chemical substance (yeast gene YIL010W): 1.7
- The level of expressed mRNA in the presence of chemical substance/The level of expressed mRNA in the absence of chemical substance (yeast gene YIL034C): 1.1
- The level of expressed mRNA in the presence of chemical substance/The level of expressed mRNA in the absence of chemical substance (yeast gene YIL076W): 1.4
- The level of expressed mRNA in the presence of chemical substance/The level of expressed mRNA in the absence of chemical substance (yeast gene YIL123W): 0.3
- The level of expressed mRNA in the presence of chemical substance/The level of expressed mRNA in the absence of chemical substance (yeast gene YIL140W): 0.9
- The level of expressed mRNA in the presence of chemical substance/The level of expressed mRNA in the absence of chemical substance (yeast gene YIL142W): 1.0
